One may read the Ki as the equilibrium dissociation constant of an inhibitor or competing ligand from its target. A lower Ki goes with a stronger hold on the target.

Our source for the Ki values is patent US10035805B2, “Tricyclic triazolic compounds” (LABORATORIOS DEL DR. ESTEVE S.A., priority 2014, dated 2018).

Where a name gives a salt, the structure may show the parent alone.

T1 sequence (Q60492 whole entry): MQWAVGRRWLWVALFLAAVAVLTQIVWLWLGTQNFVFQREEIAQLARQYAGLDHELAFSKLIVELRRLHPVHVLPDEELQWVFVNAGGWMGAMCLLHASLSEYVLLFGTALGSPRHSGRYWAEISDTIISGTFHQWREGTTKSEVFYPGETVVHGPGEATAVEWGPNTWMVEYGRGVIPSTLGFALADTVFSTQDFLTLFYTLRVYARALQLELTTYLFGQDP

This experiment addresses T1, sigma-1 receptor (Cavia porcellus, UniProt Q60492).
T1 construct: Guinea pig brains were homogenized in 10 vols; (w/v) of Tris-HCl 50 mM 0.32 M sucrose; from tissue; host or cells: guinea pig brain membranes
As to the kind of experiment: Sigma-1 receptor radioligand binding assay with [3H]-(+)-pentazocine in guinea pig brain membranes. To be noted: radioligand [3H]-(+)-pentazocine at 5.0 nM, 150 min at 37° C., nonspecific binding with 1 μM haloperidol. As to the method: Brain membrane preparation and binding assays for the al-receptor were performed as described (DeHaven-Hudkins, D. L., L. C. Fleissner, and F. Y. Ford-Rice, 1992, Characterization of the binding of [^3H](+)pentazocine to a recognition sites in guinea pig brain, Eur. J. Pharmacol. 227, 371-378) with some modifications. Guinea pig brains were homogenized in 10 vols. (w/v) of Tris-HCl 50 mM 0.32 M sucrose, pH 7.4, with a Kinematica Polytron PT 3000 at 15000 r.p.m. for 30 s. The homogenate was centrifuged at 1000 g for 10 min at 4° C. and the supernatants collected and centrifuged again at 48000 g for 15 min at 4° C. The pellet was resuspended in 10 volumes of Tris-HCl buffer (50 mM, pH 7.4), incubated at 37° C. for 30 min, and centrifuged at 48000 g for 20 min at 4° C. Following this, the pellet was resuspended in fresh Tris-HCl buffer (50 mM, pH 7.4) and stored on ice until use.
The radioligand used was [^3H]-(+)-pentazocine at 5.0 nM and the final volume was 200 μl. The incubation was initiated with the addition of 100 μl of membrane at a final tissue concentration of approximately 5 mg tissue net weight/mL and the incubation time was 150 m. at 37° C. After incubation, the membranes were collected onto pretreated glass fiber filterplate (MultiScreen-FC, Millipore), with polyethylenimine 0.1%. The filters were washed two times with 200 μl of washing buffer (50 mM Tris Cl, pH=7.4) and then 25 μl of Ecoscint H liquid scintillation cocktail were added. Microplates were allowed to set for several hours and then quantified by liquid scintillation spectrophotometry (1450 Microbeta, Wallac). Nonspecific binding was determined with 1 μM haloperidol.
`c1ccc(CN2C[C@@H]3[C@@H](C2)NCc2c(-c4ccccc4)nnn23)cc1` (racemic) [Example 1, (rac) (5a,8a-trans)-7-benzyl-3-phenyl-5,5a,6,7,8,8a-hexahydro-4H-pyrrolo[3,4-e][1,2,3]triazolo[1,5-a]pyrazine, hydrochloride] came in with a Ki of under 100 nM.

`O=C1N[C@H]2CN(Cc3ccccc3)C[C@H]2n2nnc(-c3ccccc3)c21` (racemic) [Example 2, (rac)-(5a,8a-cis)-7-benzyl-3-phenyl-5,5a,6,7,8,8a-hexahydro-4H-pyrrolo[3,4-e][1,2,3]triazolo[1,5-a]pyrazin-4-one] displayed a Ki of over 500 nM.

Take `c1ccc(CN2C[C@@H]3NCc4c(-c5ccccc5)nnn4[C@@H]3C2)cc1` (racemic) [Example 3, (rac) (5a,8a-cis)-7-benzyl-3-phenyl-5,5a,6,7,8,8a-hexahydro-4H-pyrrolo[3,4-e][1,2,3]triazolo[1,5-a]pyrazine]: the Ki lay in the range of 100 to 500 nM.

`CC(=O)N1Cc2c(-c3ccccc3)nnn2[C@@H]2CN(Cc3ccccc3)C[C@H]21` (racemic) [Example 4, (rac) 1-((5a,8a-trans)-7-benzyl-3-phenyl-6,7,8,8a-tetrahydro-4H-pyrrolo[3,4-e][1,2,3]triazolo[1,5-a]pyrazin-5(5aH)-yl)ethanone hydrochloride] returned a Ki of 100 to 500 nM.

In turn, `CCCN1C(=O)c2c(-c3ccccc3)nnn2[C@@H]2CN(Cc3ccccc3)C[C@@H]21` (racemic) [Example 5, (rac)-(5a,8a-cis)-7-benzyl-3-phenyl-5-propyl-5,5a,6,7,8,8a-hexahydro-4H-pyrrolo[3,4-e][1,2,3]triazolo[1,5-a]pyrazin-4-one] returned a Ki of over 500 nM.

In the case of `CC(C)(C)OC(=O)N1Cc2c(-c3ccccc3)nnn2[C@@H]2CNC[C@H]21` (racemic) [Example 6, (rac)-(5a,8a-trans)-tert-butyl-3-phenyl-6,7,8,8a-tetrahydro-4H-pyrrolo[3,4-e][1,2,3]triazolo[1,5-a]pyrazine-5(5aH)-carboxylate], the Ki was over 500 nM.

`CC(C)(C)OC(=O)N1Cc2c(-c3ccccc3)nnn2[C@@H]2CN(Cc3ccc(F)cc3)C[C@H]21` (racemic) [Example 7, (rac)-(5a,8a-trans)-tert-butyl-7-(4-fluorobenzyl)-3-phenyl-6,7,8,8a-tetrahydro-4H-pyrrolo[3,4-e][1,2,3]triazolo[1,5-a]pyrazine-5(5aH)-carboxylate] gave a Ki of over 500 nM.

In the case of `Fc1ccc(CN2C[C@@H]3[C@@H](C2)NCc2c(-c4ccccc4)nnn23)cc1` (racemic) [Example 8, (rac) (5a,8a-trans)-7-(4-fluorobenzyl)-3-phenyl-5,5a,6,7,8,8a-hexahydro-4H-pyrrolo[3,4-e][1,2,3]triazolo[1,5-a]pyrazine hydrochloride], the Ki was under 100 nM.

Turning to `CCCN1Cc2c(-c3ccccc3)nnn2[C@@H]2CN(Cc3ccccc3)C[C@H]21` (racemic) [Example 9, (rac) (5a,8a-trans)-7-benzyl-3-phenyl-5-propyl-5,5a,6,7,8,8a-hexahydro-4H-pyrrolo[3,4-e][1,2,3]triazolo[1,5-a]pyrazine hydrochloride], the Ki is under 100 nM.

`CCCN1Cc2c(-c3ccccc3)nnn2[C@@H]2CNC[C@H]21` (racemic) [Example 10, (rac) (5a,8a-trans)-3-phenyl-5-propyl-5,5a,6,7,8,8a-hexahydro-4H-pyrrolo[3,4-e][1,2,3]triazolo[1,5-a]pyrazine hydrochloride] returned a Ki of over 500 nM.

With `CCCCCN1C[C@@H]2[C@@H](C1)n1nnc(-c3ccccc3)c1CN2CCC` (racemic) [Example 11, (rac) (5a,8a-trans)-7-pentyl-3-phenyl-5-propyl-5,5a,6,7,8,8a-hexahydro-4H-pyrrolo[3,4-e][1,2,3]triazolo[1,5-a]pyrazine hydrochloride], the Ki was under 100 nM.

`CN1Cc2c(-c3ccccc3)nnn2[C@@H]2CN(Cc3ccccc3)C[C@@H]21` (racemic) [Example 12, (rac) (5a,8a-cis)-7-benzyl-5-methyl-3-phenyl-5,5a,6,7,8,8a-hexahydro-4H-pyrrolo[3,4-e][1,2,3]triazolo[1,5-a]pyrazine] registered a Ki of under 100 nM.

`CCCN1Cc2c(-c3ccccc3)nnn2[C@@H]2CN(Cc3ccccc3)C[C@@H]21` (racemic) [Example 13, (rac) (5a,8a-cis)-7-benzyl-3-phenyl-5-propyl-5,5a,6,7,8,8a-hexahydro-4H-pyrrolo[3,4-e][1,2,3]triazolo[1,5-a]pyrazine] showed a Ki of 100 to 500 nM.

Molecule `CCCCCN1C[C@@H]2NCc3c(-c4ccccc4)nnn3[C@@H]2C1` (racemic) [Example 14, (rac) (5a,8a-cis)-7-pentyl-3-phenyl-5,5a,6,7,8,8a-hexahydro-4H-pyrrolo[3,4-e][1,2,3]triazolo[1,5-a]pyrazine] gave a Ki of under 100 nM.

Take `CN1Cc2c(-c3ccccc3)nnn2[C@@H]2CN(Cc3ccccc3)C[C@H]21` (racemic) [Example 16, (rac) (5a,8a-trans)-7-benzyl-5-methyl-3-phenyl-5,5a,6,7,8,8a-hexahydro-4H-pyrrolo[3,4-e][1,2,3]triazolo[1,5-a]pyrazine hydrochloride]: the Ki was under 100 nM.

In turn, `CCC(=O)N1Cc2c(-c3ccccc3)nnn2[C@@H]2CN(Cc3ccccc3)C[C@H]21` (racemic) [Example 17, (rac) 1-((5a,8a-trans)-7-benzyl-3-phenyl-6,7,8,8a-tetrahydro-4H-pyrrolo[3,4-e][1,2,3]triazolo[1,5-a]pyrazin-5(5aH)-yl)propan-1-one hydrochloride] registered a Ki of 100 to 500 nM.

Consider `c1ccc(-c2nnn3c2CN[C@@H]2CN(CC4CC4)C[C@H]23)cc1` (racemic) [Example 18, (rac) (5a,8a-trans)-7-(cyclopropyl-methyl)-3-phenyl-5,5a,6,7,8,8a-hexahydro-4H-pyrrolo[3,4-e][1,2,3]triazolo[1,5-a]pyrazine hydrochloride], for which the Ki was in the range of 100 to 500 nM.

`c1ccc(-c2nnn3c2CN[C@@H]2CN(C4CCOCC4)C[C@H]23)cc1` (racemic) [Example 19, (rac) (5a,8a-trans)-3-phenyl-7-(tetrahydro-2H-pyran-4-yl)-5,5a,6,7,8,8a-hexahydro-4H-pyrrolo[3,4-e][1,2,3]triazolo[1,5-a]pyrazine hydrochloride] displayed a Ki of over 500 nM.

Regarding `CS(=O)(=O)N1Cc2c(-c3ccccc3)nnn2[C@@H]2CN(Cc3ccccc3)C[C@H]21` (racemic) [Example 20, (rac) (5a,8a-trans)-7-benzyl-5-(methylsulfonyl)-3-phenyl-5,5a,6,7,8,8a-hexahydro-4H-pyrrolo[3,4-e][1,2,3]triazolo[1,5-a]pyrazine hydrochloride], the Ki was 100 to 500 nM.

In the case of `Fc1ccccc1-c1nnn2c1CN[C@@H]1CN(Cc3ccccc3)C[C@H]12` (racemic) [Example 28, (rac) (5a,8a-trans)-7-benzyl-3-(2-fluorophenyl)-5,5a,6,7,8,8a-hexahydro-4H-pyrrolo[3,4-e][1,2,3]triazolo[1,5-a]pyrazine hydrochloride], the Ki is under 100 nM.

With `c1ccc(CN2C[C@@H]3NCCc4c(-c5ccccc5)nnn4[C@@H]3C2)cc1` (racemic) [Example 30, (rac) (6a,9a-cis)-8-benzyl-3-phenyl-4,5,6,6a,7,8,9,9a-octahydropyrrolo[3,4-b][1,2,3]triazolo[1,5-d][1,4]diazepine hydrochloride], the Ki was under 100 nM.

The molecule `CCCN1CCc2c(-c3ccccc3)nnn2[C@@H]2CN(Cc3ccccc3)C[C@@H]21` (racemic) [Example 31, (rac) (6a,9a-cis)-8-benzyl-3-phenyl-6-propyl-4,5,6,6a,7,8,9,9a-octahydropyrrolo[3,4-b][1,2,3]triazolo[1,5-d][1,4]diazepine hydrochloride] registered a Ki of under 100 nM.

`c1ccc(CN2C[C@@H]3[C@H](C2)N(CC2CC2)CCc2c(-c4ccccc4)nnn23)cc1` (racemic) [Example 32, (rac) (6a,9a-cis)-8-benzyl-6-(cyclopropylmethyl)-3-phenyl-4,5,6,6a,7,8,9,9a-octahydropyrrolo[3,4-b][1,2,3]triazolo[1,5-d][1,4]diazepine hydrochloride] registered a Ki of under 100 nM.

Consider `CCC(=O)N1CCc2c(-c3ccccc3)nnn2[C@@H]2CN(Cc3ccccc3)C[C@@H]21` (racemic) [Example 33, (rac) 1-((6a,9a-cis)-8-benzyl-3-phenyl-4,5,7,8,9,9a-hexahydropyrrolo[3,4-b][1,2,3]triazolo[1,5-d][1,4]diazepin-6(6aH)-yl)propan-1-one hydrochloride], for which the Ki was 100 to 500 nM.

The molecule `O=C1N[C@H]2CNC[C@H]2n2nnc(-c3ccccc3)c21` (racemic) [Example 36, (rac)-(5a,8a-cis)-3-phenyl-5,5a,6,7,8,8a-hexahydro-4H-pyrrolo[3,4-e][1,2,3]triazolo[1,5-a]pyrazin-4-one hydrochloride] yielded a Ki of over 500 nM.
